Measured values from article PMC5590943, “Pharmacological characterisation of S 47445, a novel positive allosteric modulator of AMPA receptors” (PLoS ONE, 2017).

Experiments:
p38a kinase (h) = p38a kinase (h) (Homo sapiens, UniProt Q16539); experiment: Enzyme and cell-based assay, ATP + ATF-2 (0.1 μM)
[1] = tested on: rat primary cortical cell cultures; experiment: LDH release toxicity assay on rat primary cortical cell cultures; settings: S 47445 10 μM
Phospholipase C = experiment: Enzyme and cell-based assay, [3H]PIP2 (0.3 mM)
5-HT1B = 5-HT1B (Rattus norvegicus, UniProt P28564); experiment: Binding assay, [125I]CYP (+ 30 μM (-)propranolol); settings: probe [125I]CYP
male OFA rats = experiment: Novel object recognition test in rats; format: in vivo, rat; settings: 3 administrations
Protocol: Novel object recognition and T-maze studies were conducted respectively in male OFA rats (150–175 g, Charles River, Saint-Germain-Nuelles, France) and male C57Bl/6 mice (5.5–6.5 month-old, Charles River, Saint-Germain-Nuelles, France). Animals were housed in collective cages with continuous access to tap water and food on a 12 h light-dark cycle, in a temperature-controlled (21 ± 1°C) and ventilated room. On completion of studies subjects were euthanized by either CO2 inhalation or intraperitoneal (i.p.) lethal pentobarbital injection. The novel object recognition test was used as the primary in vivo screening assay to identify AMPA-PAMs. The T-maze task was performed using a modified continuous performance procedure previously described in mice.
S 47445 was suspended either in distilled water with Tween80® 2% for oral administration or saline with Tween80® 2% for i.p. administration. Tween80® was obtained from Sigma-Aldrich, Lyon, France. S 47445 was synthetized by Servier, Suresnes, France. […]
The novel object recognition paradigm was developed by Ennaceur and Delacour, 1988 and aimed to evaluate potential procognitive effects of drugs on a form of recognition (episodic-like) memory in the rat. […] Consequently, recognition is measured by the time spent by rats in exploring two different objects, one being familiar and the other being new.
Animals were submitted to three phases of the test. […] Each rat was placed in the arena, and the time spent actively exploring the objects was recorded. […] After 24 h, during the third phase (session of recognition), each rat was again placed in the apparatus for 3 min in the presence of one of the familiar (Fam) objects and a new (New) object, and the time spent exploring both objects was again recorded. […] The difference in duration of exploration of the two objects (New-Fam) and the sum of duration of exploration on session of recognition were determined. Statistical analysis was performed on the discrimination index calculated as (New-Fam)/(Fam+New) using a one-way ANOVA using SAS v9.2 software (SAS Institute, Cary, NC). […]

[2] = tested on: CA3-CA1 hippocampal synapses; parameters: method as in PMID 28603025; settings: cited from earlier work
BZD (central) = experiment: Binding assay, [3H]flunitrazepam
[3] = tested on: recombinant human AMPA receptors (GluA1, GluA2 and GluA4 flip and flop variants); experiment: Glutamate-evoked currents, oocytes, across GluA recombinants; format: cell-based; settings: all tested subtypes except GluA4 flop; read-out: EC50 values among most GluA recombinants
Protocol: Compounds were tested by bath application.

AMPA = experiment: Binding assay, [3H]AMPA, rat cerebral cortex membranes
[4] = tested on: Ca2+ channel (L, verapamil site) phenylalkylamines); experiment: Binding assay, [3H](-)D 888
Androgen (h) (AR) = experiment: Binding assay, [3H]methyltrienolone
A2A (h) = A2A (h) (Homo sapiens, UniProt P29274); experiment: Binding assay, [3H]CGS 21680
[5] = tested on: Guanylyl cyclase (stimulated); experiment: Enzyme and cell-based assay, GTP (0.1 mM) / SNP (10 μM)
male adult Wistar rats = experiment: Spontaneous locomotor activity in rats; format: in vivo, rat; settings: 10, 30 and 100 mg/kg p.o. acute; n = 9
Protocol: Locomotor activity was recorded in male adult Wistar rats (180–200 g, Janvier Labs, Le Genest Saint Isle, France) placed in cages in a soundproof keeping room (open-field). A remote surveillance appliance allowed to observe and to record animal behaviour from an adjacent room. The movie camera was connected to an automatic analysis system (videotrack software, Viewpoint, Lissieu, France). The distance covered (cm) was automatically computed for each rat. Rats were orally administered 1 h before the test with S 47445 (10, 30 and 100 mg/kg) or vehicle. Locomotor activity was recorded during 30 min divided in 3 x 10-min periods. The total covered distance over 30 min was analysed using one way (dose) ANOVA, followed in case of significance of the dose effect by Dunnett’s test (versus vehicle controls). The significance threshold was set at 5%. Analyses were performed using SAS v9.2 software (SAS Institute, Cary, NC).

[6] = tested on: Ca2+ channel (L, diltiazem site) (benzothiazepines); experiment: Binding assay, [3H]diltiazem

Sequence of 5-HT1B (P28564 whole entry): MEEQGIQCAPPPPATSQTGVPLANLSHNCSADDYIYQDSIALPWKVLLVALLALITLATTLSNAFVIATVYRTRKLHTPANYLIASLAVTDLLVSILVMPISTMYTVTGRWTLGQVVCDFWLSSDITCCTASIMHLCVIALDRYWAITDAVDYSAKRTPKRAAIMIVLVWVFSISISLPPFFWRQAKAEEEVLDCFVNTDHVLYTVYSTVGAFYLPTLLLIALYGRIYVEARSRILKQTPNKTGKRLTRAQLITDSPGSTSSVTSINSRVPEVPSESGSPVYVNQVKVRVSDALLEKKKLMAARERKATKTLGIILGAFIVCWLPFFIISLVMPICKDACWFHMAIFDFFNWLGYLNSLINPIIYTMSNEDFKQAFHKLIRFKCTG
Sequence of p38a kinase (h) (Q16539 whole entry): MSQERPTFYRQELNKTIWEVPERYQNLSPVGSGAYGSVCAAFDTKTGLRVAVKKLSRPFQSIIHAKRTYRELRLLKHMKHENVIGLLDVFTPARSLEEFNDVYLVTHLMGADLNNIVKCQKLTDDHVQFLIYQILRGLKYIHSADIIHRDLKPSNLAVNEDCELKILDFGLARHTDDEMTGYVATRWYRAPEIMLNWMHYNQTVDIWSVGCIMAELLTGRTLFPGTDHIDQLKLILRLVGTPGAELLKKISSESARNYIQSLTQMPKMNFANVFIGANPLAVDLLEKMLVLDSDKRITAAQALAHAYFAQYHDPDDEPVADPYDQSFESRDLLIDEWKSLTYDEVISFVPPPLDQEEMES
Sequence of A2A (h) (P29274 whole entry): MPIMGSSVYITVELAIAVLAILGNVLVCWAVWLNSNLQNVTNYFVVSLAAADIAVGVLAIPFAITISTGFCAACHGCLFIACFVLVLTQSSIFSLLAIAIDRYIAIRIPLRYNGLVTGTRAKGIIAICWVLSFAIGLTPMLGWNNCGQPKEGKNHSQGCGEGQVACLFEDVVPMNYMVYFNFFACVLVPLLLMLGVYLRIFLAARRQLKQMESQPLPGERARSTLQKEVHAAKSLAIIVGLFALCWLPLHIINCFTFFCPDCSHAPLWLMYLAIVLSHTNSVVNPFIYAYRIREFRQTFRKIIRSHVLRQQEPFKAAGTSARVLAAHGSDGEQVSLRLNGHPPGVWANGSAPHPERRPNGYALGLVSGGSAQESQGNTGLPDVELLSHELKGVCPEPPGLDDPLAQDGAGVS

Structure (SMILES): O=C1c2cc3nnn(CCc4cccc(F)c4)c(=O)c3cc2OCN1C1CC1 [S 47445, 8-cyclopropyl-3-[2-(3-fluorophenyl)ethyl]-7,8-dihydro-3H-[1,3]oxazino[6,5-g][1,2,3]benzotriazine-4,9-dione]
- % Inhibition of control specific binding (p38a kinase (h); S 47445 1.0E-05 M): 4%
- % Inhibition of control specific binding (p38a kinase (h); S 47445 1.0E-07 M): 2%
- Reduction of glutamate-induced LDH activity ([1]; glutamate 50 μM): 32.2%
- Reduction of glutamate-induced LDH activity ([1]; glutamate 75 μM): 50.9%
- Reduction of glutamate-induced LDH activity ([1]; glutamate 100 μM): 49.0%
- % Inhibition of control specific binding (Phospholipase C; S 47445 1.0E-05 M): 7%
- % Inhibition of control specific binding (Phospholipase C; S 47445 1.0E-07 M): -5%
- inhibition at 100 nM (5-HT1B): -7%
- inhibition at 10 µM (5-HT1B): -3%
- Discrimination index versus vehicle (male OFA rats; 0.3 mg/kg p.o., p ≤ 0.01): significantly increased the discrimination index
- Discrimination index versus vehicle (male OFA rats; 1 mg/kg p.o., tendency of increase): did not reach statistical significance
- Discrimination index versus vehicle (male OFA rats; 3 mg/kg p.o., p ≤ 0.05): significantly increased the discrimination index
- Age-related deficit of LTP ([2]; 10 mg/kg chronic, old alert mice): significantly counteracted the deficit of LTP
- Long term potentiation (LTP) versus vehicle ([2]; 10 mg/kg p.o. acute, young alert mice): significantly increased long term potentiation
- % Inhibition of control specific binding (BZD (central); S 47445 1.0E-05 M): -21%
- % Inhibition of control specific binding (BZD (central); S 47445 1.0E-07 M): -2%
- EC50 [3]: 2.5 to 5.4 µM
- % Inhibition of control specific binding (AMPA; S 47445 1.0E-05 M): -8%
- % Inhibition of control specific binding (AMPA; S 47445 1.0E-07 M): 1%
- Ki (AMPA; read-out: Ki, glutamate binding site, n = 2): > 10 µM
- % Inhibition of control specific binding ([4]; S 47445 1.0E-05 M): -1%
- % Inhibition of control specific binding ([4]; S 47445 1.0E-07 M): 4%
- % Inhibition of control specific binding (Androgen (h) (AR); S 47445 1.0E-05 M): -5%
- % Inhibition of control specific binding (Androgen (h) (AR); S 47445 1.0E-07 M): 0%
- % Inhibition of control specific binding (A2A (h); S 47445 1.0E-05 M): 9%
- % Inhibition of control specific binding (A2A (h); S 47445 1.0E-07 M): -8%
- % Inhibition of control specific binding ([5]; S 47445 1.0E-05 M): 7%
- % Inhibition of control specific binding ([5]; S 47445 1.0E-07 M): -14%
- Total distance of spontaneous locomotor activity (male adult Wistar rats): did not significantly modify
- % Inhibition of control specific binding ([6]; S 47445 1.0E-05 M): 25%
- % Inhibition of control specific binding ([6]; S 47445 1.0E-07 M): -6%
